For the assay, the system named is STAT6. Briefly: Inhibitory test on STAT6 activation: IL-4-induced alkali phosphatase STAT6 reporter in 293 cells stably expressing the STAT6 gene and STAT6 reporter gene. Type of assay: cell-based. Conditions: HEK293; Table 2; 1 ng/ml human recombinant IL-4, 16 hours, 293 cells with STAT6 reporter; read-out: Inhibitory activity IC50 (concentration at which the alkali phosphatase activity induced by IL-4 was inhibited by 50%). The method, boiled down:
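HEK293 clone stably carrying STAT6 and a STAT6-element-driven alkaline phosphatase reporter, 5000 cells/well. Compound (DMSO ≤0.1%) plus 1 ng/ml human IL-4 for 16 hours. Supernatant heat-treated 65° C. 10 minutes, then alkaline phosphatase measured fluorometrically in carbonate buffer.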
(In a reporter assay the amount or activity of a reporter protein is the signal.)

Counter-ions that a name gives are not always drawn. Some results are limits rather than exact numbers.

Turning to `CS(=O)(=O)c1cnc(-c2ncnc3ccc(-c4c[nH]nc4-c4ccc(F)cc4)cc23)s1` [Example 897, 6-[3-(4-Fluorophenyl)-1H-pyrazol-4-yl]-4-(5-methylsulfonylthiazol-2-yl) quinazoline], the IC50 was under 0.01 µM.

Turning to `CS(=O)(=O)c1cnc(-c2ncnc3ccc(-c4c[nH]nc4-c4c(F)cccc4F)cc23)s1` [Example 899, 6-[3-(2,6-Difluorophenyl)-1H-pyrazol-4-yl]-4-(5-methylsulfonylthiazol-2-yl) quinazoline], the IC50 is under 0.01 µM.

As for `CS(=O)(=O)c1ccc(-c2ncnc3ccc(-c4c[nH]nc4-c4ccc(F)cc4)cc23)o1` [Example 900, 6-[3-(4-Fluorophenyl)-1H-pyrazol-4-yl]-4-(5-methylsulfonylfuran-2-yl) quinazoline], the IC50 was 0.01 to 0.1 µM.

Take `CS(=O)(=O)c1ccc(-c2ncnc3ccc(-c4c[nH]nc4[N+](=O)[O-])cc23)s1` [Example 901, 4-(5-Methylsulfonylthiophen-2-yl)-6-(3-nitro-1H-pyrazol-4-yl) quinazoline]: the IC50 lay in the range of 0.1 to 1 µM.

With `O=S(=O)(c1ccc(-c2ncnc3ccc(-c4c[nH]nc4-c4ccc(F)cc4)cc23)s1)C1CC1` [Example 902, 4-(5-Cyclopropanesulfonylthiophen-2-yl)-6-[3-(4-fluorophenyl)-1H-pyrazol-4-yl] quinazoline], the IC50 was under 0.01 µM.

As for `O=S(=O)(c1ccc(-c2ncnc3ccc(-c4c[nH]nc4-c4ccc(F)cc4F)cc23)s1)C1CC1` [Example 903, 4-(5-Cyclopropanesulfonylthiophen-2-yl)-6-[3-(2,4-difluorophenyl)-1H-pyrazol-4-yl] quinazoline], the IC50 is under 0.01 µM.

Turning to `CS(=O)(=O)c1ccc(-c2ncnc3ccc(-c4c[nH]nc4CN4CCOCC4)cc23)s1` [Example 904, 4-(5-Methylsulfonylthiophen-2-yl)-6-(3-morpholin-4-ylmethyl-1H-pyrazol-4-yl) quinazoline], the IC50 fell in the range of 0.1 to 1 µM.

Take `CS(=O)(=O)c1ccc(-c2ncnc3ccc(-c4c[nH]nc4COc4ccc(F)cc4F)cc23)s1` [Example 905, 6-[3-(2,4-Difluorophenoxymethyl)-1H-pyrazol-4-yl]-4-(5-methylsulfonylthiophen-2-yl) quinazoline]: the IC50 lay in the range of 0.1 to 1 µM.

Take `CS(=O)(=O)c1ccc(-c2ncnc3ccc(-c4c[nH]nc4CNc4ccc(F)cc4F)cc23)s1` [Example 906, 2,4-Difluorophenyl{4-[4-(5-methylsulfonylthiophen-2-yl)quinazolin-6-yl]-1H-pyrazol-3-ylmethyl} amine]: the IC50 lay in the range of 0.1 to 1 µM.

In the case of `Fc1ccc(-c2n[nH]cc2-c2ccc3ncnc(-c4nnc(C5CC5)o4)c3c2)c(F)c1` [Example 907, 4-(5-Cyclopropyl[1,3,4]oxadiazol-2-yl)-6-[3-(2,4-difluorophenyl)-1H-pyrazol-4-yl] quinazoline], the IC50 lay within 0.01 to 0.1 µM.

Regarding `Fc1ccc(-c2n[nH]cc2-c2ccc3ncnc(-c4nnc(C5CC5)s4)c3c2)c(F)c1` [Example 908, 4-(5-Cyclopropyl[1,3,4]thiadiazol-2-yl)-6-[3-(2,4-difluorophenyl)-1H-pyrazol-4-yl] quinazoline], the IC50 is under 0.01 µM.

Regarding `COc1nnc(-c2ncnc3ccc(-c4c[nH]nc4-c4c(F)cccc4F)cc23)o1` [Example 909, 6-[3-(2,6-Difluorophenyl)-1H-pyrazol-4-yl]-4-(5-methoxy|[1,3,4]oxadiazol-2-yl) quinazoline], the IC50 fell in the range of 0.01 to 0.1 µM.

As to `Cn1cc(-c2ncnc3ccc(-c4c[nH]nc4-c4c(F)cccc4F)cc23)cn1` [Example 910, 6-[3-(2,6-Difluorophenyl)-1H-pyrazol-4-yl]-4-(1-methyl-1H-pyrazol-4-yl) quinazoline], the IC50 was under 0.01 µM.

As to `Cn1cnc(-c2ncnc3ccc(-c4c[nH]nc4-c4c(F)cccc4F)cc23)c1` [Example 911, 6-[3-(2,6-Difluorophenyl)-1H-pyrazol-4-yl]-4-(1-methyl-1H-imidazol-4-yl) quinazoline], the IC50 was under 0.01 µM.

Regarding `Cc1cnn(-c2ncnc3ccc(-c4c[nH]nc4-c4c(F)cccc4F)cc23)c1` [Example 913, 6-[3-(2,6-Difluorophenyl)-1H-pyrazol-4-yl]-4-(4-methylpyrazol-1-yl) quinazoline], the IC50 is under 0.01 µM.

With `Cc1cn(-c2ncnc3ccc(-c4c[nH]nc4-c4c(F)cccc4F)cc23)cn1` [Example 914, 6-[3-(2,6-Difluorophenyl)-1H-pyrazol-4-yl]-4-(4-methylimidazol-1-yl) quinazoline], the IC50 was under 0.01 µM.

Regarding `CN(C)S(=O)(=O)c1ccc(N2CCN(c3ncnc4ccc(-c5cn[nH]c5)cc34)CC2)cc1` [Example 921, N,N-Dimethyl-4-{4-[6-(1H-pyrazol-4-yl)quinazolin-4-yl]piperazin-1-yl} benzene sulfonamide], the IC50 was under 0.01 µM.

With `CS(=O)(=O)c1ccc(N2CCN(c3ncnc4ccc(-c5cn[nH]c5)cc34)CC2)s1` [Example 923, 4-[4-(5-Methylsulfonylthiophen-2-yl)piperazin-1-yl]-6-(1H-pyrazol-4-yl)quinazoline trihydrochloride], the IC50 was under 0.01 µM.

Regarding `Cc1cccc(N2CCN(c3ncnc4ccc(-c5cn[nH]c5)cc34)CC2)c1` [Example 934, 6-(1H-Pyrazol-4-yl)-4-(4-m-tolylpiperazin-1-yl)-quinazoline tri-trifluoroacetate], the IC50 was under 0.01 µM.

On to `c1ccc(N2CCN(c3ncnc4ccc(-c5cn[nH]c5)cc34)CC2)nc1` [Example 936, 6-(1H-Pyrazol-4-yl)-4-(4-pyridin-2-yl-piperazin-1-yl)quinazoline tri-trifluoroacetate], for which the IC50 is under 0.01 µM.

Turning to `CS(=O)(=O)c1cccc(N2CCN(c3ncnc4ccc(-c5cn[nH]c5)cc34)CC2)c1` [Example 946, 4-[4-(3-Methylsulfonylphenyl)piperazin-1-yl]-6-(1H-pyrazol-4-yl)quinazoline tri-trifluoroacetate], the IC50 is under 0.01 µM.

For `O=S(=O)(CCO)c1cccc(N2CCN(c3ncnc4ccc(-c5cn[nH]c5)cc34)CC2)c1` [Example 951, 2-(3-{4-[6-(1H-Pyrazol-4-yl)quinazolin-4-yl]piperazin-1-yl}benzenesulfonyl)ethanol tri-trifluoroacetate], the IC50 is 0.01 to 0.1 µM.

Take `CNS(=O)(=O)c1cccc(N2CCN(c3ncnc4ccc(-c5cn[nH]c5)cc34)CC2)c1` [Example 952, N-Methyl-3-{4-[6-(1H-pyrazol-4-yl)quinazolin-4-yl]piperazin-1-yl}benzene sulfonamide tri-trifluoroacetate]: the IC50 was under 0.01 µM.

`O=S(=O)(c1cccc(N2CCN(c3ncnc4ccc(-c5cn[nH]c5)cc34)CC2)c1)N1CCCCC1` [Example 955, 4-{4-[3-(Piperidine-1-sulfonyl)phenyl]piperazin-1-yl}-6-(1H-pyrazol-4-yl)quinazoline tri-trifluoroacetate]: the IC50 is under 0.01 µM.

As to `c1nc(N2CCN(C3CCCCC3)CC2)c2cc(-c3cn[nH]c3)ccc2n1` [Example 957, 4-(4-Cyclohexylpiperazin-1-yl)-6-(1H-pyrazol-4-yl)quinazoline tri-trifluoroacetate], the IC50 was 0.01 to 0.1 µM.

Turning to `COc1ccc(-c2n[nH]cc2-c2ccc3ncnc(N4CCN(c5cccc(S(C)(=O)=O)c5)CC4)c3c2)cc1OC` [Example 963, 6-[3-(3,4-Dimethoxyphenyl)-1H-pyrazol-4-yl]-4-[4-(3-methylsulfonylphenyl)piperazin-1-yl]-quinazoline tri-trifluoroacetate], the IC50 is under 0.01 µM.

Turning to `CS(=O)(=O)c1cccc(N2CCN(c3ncnc4ccc(-c5c[nH]nc5-c5ccc6c(c5)OCO6)cc34)CC2)c1` [Example 964, 6-(3-Benzo[1,3]dioxol-5-yl-1H-pyrazol-4-yl)-4-[4-(3-methylsulfonylphenyl)piperazin-1-yl]quinazoline tri-trifluoroacetate], the IC50 is under 0.01 µM.

As for `CS(=O)(=O)c1cccc(N2CCN(c3ncnc4ccc(-c5c[nH]nc5-c5ccc(C#N)s5)cc34)CC2)c1` [Example 967, 5-(4-{4-[4-(3-Methylsulfonylphenyl)piperazin-1-yl]quinazolin-6-yl}-1H-pyrazol-3-yl)thiophen-2-carbonitrile tri-trifluoroacetate], the IC50 is under 0.01 µM.

For the compound `Cc1ccc(S(=O)(=O)N2CCN(c3ncnc4ccc(-c5cn[nH]c5)cc34)CC2)cc1` [Example 971, 4-[4-(Toluene-4-sulfonyl)piperazin-1-yl]-6-(1H-pyrazol-4-yl)quinazoline di-trifluoroacetate], the IC50 is 0.1 to 1 µM.

`O=C(Nc1cccc(N2CCN(c3ncnc4ccc(-c5cn[nH]c5)cc34)CC2)c1)C1CC1` [Example 976, Cyclopropanecarboxylic acid (3-{4-[6-(1H-pyrazol-4-yl)quinazolin-4-yl]piperazin-1-yl}phenyl)amide tri-trifluoroacetate]: the IC50 was under 0.01 µM.

`O=C(Nc1cccc(N2CCN(c3ncnc4ccc(-c5cn[nH]c5)cc34)CC2)c1)C1(c2ccccc2)CC1` [Example 978, 1-Phenylcyclopropanecarboxylic acid (3-{4-[6-(1H-pyrazol-4-yl)quinazolin-4-yl]piperazin-1-yl}phenyl)amide tri-trifluoroacetate]: the IC50 was under 0.01 µM.

Regarding `O=S(=O)(Nc1cccc(N2CCN(c3ncnc4ccc(-c5cn[nH]c5)cc34)CC2)c1)c1cccs1` [Example 993, Thiophene-2-sulfonic acid (3-{4-[6-(1H-pyrazol-4-yl)quinazolin-4-yl]piperazin-1-yl)phenyl)amide tri-trifluoroacetate], the IC50 was 0.01 to 0.1 µM.

With `O=S1(=O)CCCN1c1cccc(N2CCN(c3ncnc4ccc(-c5cn[nH]c5)cc34)CC2)c1` [Example 1000, 4-{4-[3-(1,1-Dioxo-isothiazolidin-2-yl)phenyl]piperazin-1-yl}-6-(1H-pyrazol-4-yl)quinazoline tri-trifluoroacetate], the IC50 was under 0.01 µM.

For the origin of these results see patent US7074801B1, “Nitrogen-containing condensed cyclic compound having a pyrazolyl group as a substituent group and pharmaceutical composition thereof” (Eisai Co., Ltd., priority 2001, dated 2006).
